Measurements published in patent publication US20240173273A1 (priority 2021, published 2024).

Experiments:
Format in all cases: cell-based
[1] = system: inflammatory response induced by SARS-COV-2; assay: Inflammatory and immune-sensing gene expression in infected Calu-3a cells; details: data not shown
SARS-COV-2 [2] = system: SARS-COV-2
SARS-COV-2 [3] = system: SARS-COV-2; remark: listed apart in the source
SARS-COV-2 [4] = assay: microbe, parasite or virus in culture
[5] = system: HECT E3 ligases, ACE2, TMPRSS2; assay: Expression of HECT E3 ligases, ACE2 and TMPRSS2 in Vero E6 and Calu-3a cells (RT-qPCR)

## CC(C)(CO)[C@@H](O)C(=O)NCCC(=O)NCCSSCCNC(=O)CCNC(=O)[C@H](O)C(C)(C)CO [pantethine, (2R,2′ R)—N,N′-(3,12-Dioxo-7,8-dithia-4,11-diazatetradecane-1,14-diyl)bis(2,4-dihydroxy-3,3-dimethylbutanamide)]
[1]
  inflammatory response induced by SARS-COV-2: reduced
SARS-COV-2 [2]
  expression of the viral Spike and Nucleocapsid proteins within infected cells: reduce significantly
SARS-COV-2 [3]
  infection of Calu-3a cells by SARS-COV-2: reduced significantly and dose dependently
SARS-COV-2 [4]
  infection of Vero E6 cells by SARS-COV-2: reduced significantly and dose dependently
SARS-COV-2 [4]; Severe acute respiratory syndrome coronavirus 2, Vero C1008, 72 h, 100 μM, read-out: inhibition of the replication of SARS-COV-2 (Spike protein staining)
  inhibition at 100 µM: ~76%
SARS-COV-2 [4]; Severe acute respiratory syndrome coronavirus 2, Vero C1008, 72 h, 1000 μM, read-out: inhibition of the replication of SARS-COV-2 (Spike protein staining)
  inhibition at 1000 µM: ~98%
[5]
  ACE2 and TMPRSS2 expression: no significant effect
  HECT E3 ligases expression: no effects
  infection-induced increase of TMPRSS2 expression: inhibited
[5]; infected cells in vitro, data not shown
  HECT E3 ligase-increase induced by SARS-CoV-2 infection: decreased
